The subject of assay [1] is Pseudomonas aeruginosa TB-151. The assay can be described thus: MIC (minimum inhibitory concentration). In kind it is cell-based. The settings on record: tobramycin resistant organism.
Assay [2] deals with Proteus vulgaris TB-162. The assay can be described thus: MIC (minimum inhibitory concentration). The settings on record: tobramycin resistant organism. Type of assay: cell-based.
Where [3] appears, read: Pseudomonas aeruginosa, TB151, Table 3, read-out: MIC.
Where [4] appears, read: Proteus vulgaris, TB162, Table 3, read-out: MIC.
[5] abbreviates: Pseudomonas aeruginosa, TB151, Table 2, read-out: MIC.
Where [6] appears, read: Proteus vulgaris, TB162, Table 2, read-out: MIC.

We go through 6 molecules from US4166114A, “Aminoglycoside antibiotic derivatives and method of use” (Shionogi & Co., Ltd., priority 1976, dated 1979).

Converted amounts (≈) assume the structure as drawn. Read-outs that look alike come from different tables or passages of the source. Where only a bound is given, the exact number is not on record here.

As to `NC[C@H]1O[C@H](O[C@H]2[C@H](O)[C@@H](O[C@H]3O[C@H](CO)[C@@H](O)[C@H](N)[C@H]3O)[C@H](NC(=O)C3(O)CCNC3)C[C@@H]2N)[C@H](O)[C@@H](O)[C@@H]1O` (stereo partly drawn) [KM-A der., 1-N-(3-hydroxypyrrolidine-3-carbonyl)-kanamycin A], the MIC was determined as 6.25 µg/mL (≈ 10.5 µM) in assay [1] (setting [3]) and 3.13 µg/mL (≈ 5.24 µM) in assay [2] (setting [4]).

Regarding `NC[C@H]1O[C@H](O[C@H]2[C@H](O)[C@@H](O[C@H]3O[C@H](CO)[C@@H](O)[C@H](N)[C@H]3O)[C@H](N)C[C@@H]2N)[C@H](O)[C@@H](O)[C@@H]1O` [KM-A, kanamycin A], the MIC in assay [1] (setting [5]) is over 200 µg/mL; in assay [1] (setting [3]), over 100 µg/mL; in assay [2] (setting [6]), over 200 µg/mL; in assay [2] (setting [4]), over 100 µg/mL.

As for `CN[C@@H]1[C@@H](O)[C@@H](O[C@@H]2[C@@H](O)[C@H](O[C@H]3OC(CN)=CC[C@H]3N)[C@@H](N)C[C@H]2N)OC[C@]1(C)O` [SSM, sisomicin], the MIC in assay [1] (setting [5]) was over 200 µg/mL; in assay [2] (setting [6]) it was 12.5 µg/mL (≈ 27.9 µM).

For `NC[C@H]1O[C@H](O[C@H]2[C@H](O)[C@@H](O[C@H]3O[C@H](CO)[C@@H](O)[C@H](N)[C@H]3O)[C@H](NC(=O)C3(O)CCNCC3)C[C@@H]2N)[C@H](N)C[C@@H]1O` [TOB der.], the MIC was determined as 6.25 µg/mL (≈ 10.5 µM) in assay [1] (setting [5]), 3.13 µg/mL (≈ 5.26 µM) in assay [1] (setting [3]), 6.25 µg/mL (≈ 10.5 µM) in assay [2] (setting [6]) and 1.56 µg/mL (≈ 2.62 µM) in assay [2] (setting [4]).

With `NC[C@H]1O[C@H](O[C@H]2[C@H](O)[C@@H](O[C@H]3O[C@H](CO)[C@@H](O)[C@H](N)[C@H]3O)[C@H](N)C[C@@H]2N)[C@H](N)C[C@@H]1O` [TOB, tobramycin], the MIC in assay [1] (setting [5]) turned out to be 100 µg/mL (≈ 214 µM); in assay [1] (setting [3]), 100 µg/mL (≈ 214 µM); in assay [2] (setting [6]) it was 12.5 µg/mL (≈ 26.7 µM); in assay [2] (setting [4]), 6.25 µg/mL (≈ 13.4 µM).

With gentamicin [GM], the MIC in assay [1] (Table 2) was 100 µg/mL; in assay [2] (Table 2), 6.25 µg/mL.

A word on the MIC: it is the lowest concentration that inhibits growth of the organism.
